Conditions: in all of xylene, toluene, chlorobenzene, chloroform or tetrahydrofuran
Text: By “solubilizing substituent” we mean a substituent which renders the triazine sufficiently soluble in organic solvents that it can be solution processed to fabricate an opto-electrical device by, for example, ink-jet printing or spin-coating. […] Organic solvents suitable for opto-electrical device fabrication include xylene, toluene, chlorobenzene, chloroform or tetrahydrofuran but preferably toluene or xylene.

## c1ccc(-c2ccc(-c3nc(-c4ccc(-c5ccccc5)cc4)nc(-c4ccc(-c5ccccc5)cc4)n3)cc2)cc1 [2,4,6-tris(biphenyl)-1,3,5-triazine]
  solubility: < 5000 µg/mL

— US20100013377A1, “Compounds for use in Opto-Electrical Devices” (CDT OXFORD LIMITED, priority 2006, published 2010)
